# Reference: paper PMC4109680, “Identification and Preclinical Pharmacology of the γ-Secretase Modulator BMS-869780” (International Journal of Alzheimer's Disease, 2014)
# Columns and labels:
# [1] = Plasma protein bound fraction, mouse; format: in vitro ADME
# brain Aβ1-42 and Aβ1-40 = experiment: Rat 4-day repeat dose, residual brain Aβ by ELISA and immunodepletion; format: in vivo
# Method: Figure 7 BMS-869780 dose response and evaluation of residual Aβ levels in rat brain. (a) Groups of rats received intraperitoneal (IP) injections of vehicle or BMS-869780 at doses of 100, 30, 10, 3, 1, and 0.3 mg/kg. Additional rats were dosed with GSI BMS-698861 at 30 mg/kg as a positive control for Aβ-lowering. Group sizes were seven rats for each dose of BMS-869780 and 14 rats for vehicle and GSI dose groups. Brain and plasma were harvested 5 hours after dosing. Brain Aβ1-42 (green), brain Aβ1-40 (blue), brain Aβ1-x (black), and plasma Aβ1-40 (red) were determined. Values are expressed as % relative to vehicle group mean. Whiskers represent standard error. ⊗Aβ1-x was not determined in the groups dosed at 3, 1, and 0.3 mg/kg. (b) Brain Aβ1-40 was plotted against brain Aβ1-42 for each rat dosed with BMS-869780 (black ▼) and for each rat dosed with vehicle (grey ●). Values are expressed as % relative to vehicle group mean. Whiskers represent standard error. […] The respective 95% confidence intervals were 618–1053 nM, 704–1264 nM, and 44–158 nM. (d) Rats were dosed once daily with BMS-869780 for 4 days at 10 and 100 mg/kg or vehicle, plasma, and brain samples were taken 5 hours after the last dose, and immunodepletion of brain extracts was carried out prior to Aβ1-42 ELISA assays. […] After immunodepletion, Aβ1-42 was assayed by ELISA. (e) Same as described in (d), except that Aβ1-40 ELISA was carried out following the immunodepletion.
# For immunodepletion of rat brain Aβ, solid phase extracts were pooled within treatment groups. The pools were divided into equal aliquots and incubated with or without monoclonals 565, TSD, 4G8, or 6E10 (10 μg) at 4°C overnight. Protein G beads (50 μL; EZview, Sigma) were added, and incubation was continued with agitation for 1 hour. The beads were removed by centrifugation, and Aβ1-40 and Aβ1-42 in the unbound fraction were quantified by ELISA, as described above.
# All experimental procedures with animals followed National Institutes of Health guidelines and were authorized by and in compliance with policies of the Bristol-Myers Squibb Animal Use and Care Committee. Mice and rats were housed with a 6:00 AM to 6:00 PM light/dark cycle and allowed free access to food and water. For 3xTg mice, BMS-869780 was dosed in three-month-old females by oral gavage at 6 mL/kg in vehicle consisting of 84% polyethylene glycol average molecular weight of 400 (PEG-400), 15% EtOH, and 1% Tween-80 (w/w/w). The compound was dissolved in EtOH and then diluted with PEG-400 and Tween, after which the vial was sealed, vortexed, and sonicated at 56°C for 1 hour. Animals were euthanized by asphyxiation in CO2. Blood was collected by cardiac puncture and placed into ethylene-diaminetetraacetic acid microtainer tubes for the preparation of plasma. The cerebellum was collected for the determination of compound concentration, and the remaining brain was separated into left and right halves before freezing in liquid nitrogen. For the rat time course study, 8- to 12-week-old female Sprague-Dawley rats were obtained from Charles River Laboratories (Wilmington, MA), BMS-869780 was dosed orally at 4 mL/kg, and brain and plasma samples were collected as described for the 3xTg mice. For the four day repeat dose rat study, BMS-869780 was given by oral gavage in vehicle consisting of PEG-400, PEG-200, D-α-tocopheryl polyethylene glycol succinate, Solutol HS 15, in the ratio 80 : 10 : 5 : 5 (w/w/w/w). Methods for the pharmacokinetics studies in rat, dog, and monkey are described below.
# [2] = averaged across depleted samples in both dose groups
# [3] = four daily doses, 10 and 100 mg/kg, 5 hours after last dose
structure (smiles),measurement,setting,value
COc1cc(Nc2nc3n(n2)CCCC[C@H]3c2ccc(F)cc2)ccc1-n1cnc(Cl)c1 [BMS-869780],protein bound fraction,[1],99.6%
same,residual signal for Aβ1-40 after immunodepletion,brain Aβ1-42 and Aβ1-40; [2],4%
same,residual signal for Aβ1-42 after immunodepletion,brain Aβ1-42 and Aβ1-40; [2],16%
same,residual pool of Aβ1-40,brain Aβ1-42 and Aβ1-40; four daily doses,~7%
same,residual pool of Aβ1-42,brain Aβ1-42 and Aβ1-40; four daily doses,ca. 15%
same,residual ELISA signal for Aβ1-40,brain Aβ1-42 and Aβ1-40; [3],19%
same,residual ELISA signal for Aβ1-42,brain Aβ1-42 and Aβ1-40; [3],31%
